# How the values were obtained:
# P-gp [1] = target: T1, P-gp (Homo sapiens, UniProt P08183); assay: ATPase activity, High-Five P-gp total membrane vesicles
# Method: The absorbance was measured after 10 min incubation at room temperature using the spectrophotometer Ultrospec 3100 pro (Amersham Biosciences, Amersham, UK) at 880 nm wavelength.
# MRP1 = test system: T2, MRP1; assay: Cell-based transport assay by flow cytometry, BHK21-ABCC1; parameters: species or system human; conditions: 10 µM, calcein-AM 0.2 µM
# T2 construct: expressed in transfected cells; host or cells: BHK21 (stably transfected, methotrexate selection; gift of Dr. Attilio Di Pietro)
# Method: (§1) Cell lines (HEK293-ABCG, NIH3T3-ABCB1 and BHK21-ABCC1) were kept at 37 °C in the presence of 5% CO2 in DMEM high glucose (Gibco, Sao Paulo, Brazil) supplemented with 10% Fetal Bovine Serum (Gibco, Sao Paulo, Brazil) and 1% antibiotic (penicillin/streptomycin–Hyclone Laboratories, Logan, UT, USA). The stably transfected cells were kept with specific selection agent for each ABC transporter: ABCG2–G418 0.75 mg/mL, P-gp–Colchicine 60 ng/mL, MRP1–Methotrexate 0.1 mg/mL. The cells HEK293-ABCG2, NIH3T3-ABCB1 and BHK21-ABCC1, overexpressing ABCG2, P-gp and MRP1, respectively, were kindly provided by Dr. Attilio Di Pietro (IBCP, Lyon, France).
# Cells were seeded into 24-well plates at a density of 1 × 10^5 cells/well and incubated for 48 h at 37 °C and 5% of CO2. When the confluence reached 90–95%, the medium was removed and the cells were exposed to inhibitors and substrates for 30 min at 37 °C. […] The intracellular fluorescence was recorded by flow cytometry (FACS Calibur–Becton Dickinson, San Diego, CA, USA). […] The inhibition percent was calculated as follows: % of inhibition = ((C − S))/((I − S)) × 100, where “C” represents the treatment with substrate + compound in test, “S” represents the treatment with substrate alone and “I” represents the treatment with substrate + reference inhibitor.
# ABCG2 [2] = target: T3, ABCG2 (Homo sapiens, UniProt Q9UNQ0); assay: Cell-based transport assay by confocal microscopy; parameters: expressed in transfected cells; host or cells: HEK293 (stably transfected, G418 selection; gift of Dr. Attilio Di Pietro); conditions: 10 µM, hoechst 33342 2 µM
# T3 sequence (Q9UNQ0 1-655): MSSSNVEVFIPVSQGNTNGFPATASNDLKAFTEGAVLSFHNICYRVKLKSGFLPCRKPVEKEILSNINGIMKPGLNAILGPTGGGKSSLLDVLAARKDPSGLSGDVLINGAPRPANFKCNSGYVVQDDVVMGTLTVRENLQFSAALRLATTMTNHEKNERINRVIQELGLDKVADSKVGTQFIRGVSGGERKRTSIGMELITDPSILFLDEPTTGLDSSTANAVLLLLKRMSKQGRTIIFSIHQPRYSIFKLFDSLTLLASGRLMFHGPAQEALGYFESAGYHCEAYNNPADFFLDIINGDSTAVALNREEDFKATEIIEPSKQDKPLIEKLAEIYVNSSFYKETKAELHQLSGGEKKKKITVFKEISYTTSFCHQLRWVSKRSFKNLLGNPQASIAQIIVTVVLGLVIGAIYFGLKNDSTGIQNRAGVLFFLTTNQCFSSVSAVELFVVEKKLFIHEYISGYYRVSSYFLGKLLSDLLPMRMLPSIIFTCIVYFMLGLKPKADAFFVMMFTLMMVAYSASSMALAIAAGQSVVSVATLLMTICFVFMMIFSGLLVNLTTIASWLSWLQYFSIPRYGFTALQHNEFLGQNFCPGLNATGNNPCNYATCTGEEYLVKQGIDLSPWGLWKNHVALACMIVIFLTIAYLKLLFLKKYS
# Method: Cells were seeded into 24-well plates at a density of 1 × 10^5 cells/well containing coverslips for microscopy and incubated for 48 h at 37 °C and 5% of CO2. Cells that adhered to the coverslips were treated with C4a and hoechst 33342 for 30 min at 37 °C. Then, the cell monolayer was washed with PBS at 37 °C and the coverslips removed from the plate and placed on slides for microscopy. The slides were then read in a confocal microscope Nikon A1R MP + (NIKON, Tokyo, Japan) using an oil-immersed 40× objective (with the numerical aperture of 1.15). A laser of 405 nm was used for excitation and the fluorescence emission was recorded using a bandpass filter of 425–475 nm. The software Nis Elements 4.20 (NIKON, Tokyo, Japan) was used for visualization of the images.
# ABCG2 [3] = target: T3, ABCG2; parameters: expressed in transfected cells; host or cells: HEK293 (stably transfected, G418 selection; gift of Dr. Attilio Di Pietro); conditions: read-out: IC50 of ABCG2 inhibition; cited from earlier work
# P-gp [4] = target: T1, P-gp; assay: Cell-based transport assay by flow cytometry, NIH3T3-ABCB1; conditions: 10 µM, rhodamine 123 10 µM
# Method: as §1
# Cells were seeded into 24-well plates at a density of 1 × 10^5 cells/well and incubated for 48 h at 37 °C and 5% of CO2. […] The intracellular fluorescence was recorded by flow cytometry (FACS Calibur–Becton Dickinson, San Diego, CA, USA). […] The inhibition percent was calculated as follows: % of inhibition = ((C − S))/((I − S)) × 100, where “C” represents the treatment with substrate + compound in test, “S” represents the treatment with substrate alone and “I” represents the treatment with substrate + reference inhibitor.
# This study was approved by the Ethics Committee of SCS/UFPR (CAAE 51428521.2.0000.0102). […] The protein concentration was quantified by Bradford assay. […]
# T1 sequence (P08183 whole entry): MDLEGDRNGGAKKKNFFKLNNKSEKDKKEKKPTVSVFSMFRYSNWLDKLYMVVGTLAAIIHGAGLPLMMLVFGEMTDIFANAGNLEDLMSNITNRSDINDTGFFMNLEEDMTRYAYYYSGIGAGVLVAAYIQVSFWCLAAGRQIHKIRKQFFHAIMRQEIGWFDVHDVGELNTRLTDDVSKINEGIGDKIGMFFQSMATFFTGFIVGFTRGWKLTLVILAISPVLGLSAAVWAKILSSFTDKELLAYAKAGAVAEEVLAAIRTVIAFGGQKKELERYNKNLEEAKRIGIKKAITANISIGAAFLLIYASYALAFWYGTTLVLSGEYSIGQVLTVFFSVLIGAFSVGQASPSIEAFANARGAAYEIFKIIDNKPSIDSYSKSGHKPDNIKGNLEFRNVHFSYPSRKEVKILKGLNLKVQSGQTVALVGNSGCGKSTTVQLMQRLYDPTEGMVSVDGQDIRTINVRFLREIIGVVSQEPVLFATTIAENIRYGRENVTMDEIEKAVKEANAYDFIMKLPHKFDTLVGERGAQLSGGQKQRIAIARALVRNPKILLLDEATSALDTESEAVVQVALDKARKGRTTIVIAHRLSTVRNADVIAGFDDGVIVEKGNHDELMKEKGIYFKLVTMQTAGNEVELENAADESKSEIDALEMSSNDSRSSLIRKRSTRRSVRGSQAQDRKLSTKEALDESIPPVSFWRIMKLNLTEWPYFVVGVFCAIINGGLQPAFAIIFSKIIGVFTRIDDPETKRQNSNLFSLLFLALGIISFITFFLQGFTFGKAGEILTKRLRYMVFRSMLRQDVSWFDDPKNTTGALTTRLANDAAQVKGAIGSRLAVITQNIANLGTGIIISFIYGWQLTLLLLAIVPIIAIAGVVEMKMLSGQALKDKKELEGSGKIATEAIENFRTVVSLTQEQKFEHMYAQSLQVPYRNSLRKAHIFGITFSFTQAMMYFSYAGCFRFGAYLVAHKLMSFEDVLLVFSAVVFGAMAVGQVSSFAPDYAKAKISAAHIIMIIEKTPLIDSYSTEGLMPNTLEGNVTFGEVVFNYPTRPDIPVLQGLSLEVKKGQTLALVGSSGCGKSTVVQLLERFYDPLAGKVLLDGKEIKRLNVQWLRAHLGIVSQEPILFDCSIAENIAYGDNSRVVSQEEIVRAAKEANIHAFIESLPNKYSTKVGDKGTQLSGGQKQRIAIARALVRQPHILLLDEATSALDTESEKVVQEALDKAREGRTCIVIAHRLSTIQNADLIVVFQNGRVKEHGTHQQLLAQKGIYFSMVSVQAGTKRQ
smiles,measurement,setting,value
"COc1ccc2[nH]cc(CCNC(=O)c3cc(=O)c4c(OCc5ccccc5Br)cccc4o3)c2c1 [C4a, chromone 4a]",EC50,P-gp [1],4.3 µM
same,inhibition of calcein efflux mediated by MRP1,MRP1,did not inhibit
same,inhibition of hoechst 33342 efflux mediated by ABCG2 (confocal microscopy),ABCG2 [2],inhibited the efflux of all
same,IC50,ABCG2 [3],0.086 µM
same,inhibition of rhodamine 123 efflux mediated by P-gp,P-gp [4],did not inhibit

# Source: paper PMC10144134, “Characterization of Potent ABCG2 Inhibitor Derived from Chromone: From the Mechanism of Inhibition to Human Extracellular Vesicles for Drug Delivery” (Pharmaceutics, 2023)
